Measured values reported in US20250186410A1, “DUAL INHIBITORS OF TRYPTOPHAN DIOXYGENASES (IDO1 AND TDO) AND THEIR USE IN THERAPY” (ANTIDO THERAPEUTICS INTERNATIONAL SÀRL, priority 2022, published 2025).

What was measured:
[1] = tested on: LLC (cisplatin-sensitive cell tumours); assay: Tumor growth in syngeneic mouse model, LLC allografts; format: in vivo; conditions: epacadostat 200 mg/kg P.O. daily
Description: (§1) LLC or LLC-CR (1×10^6) cells were subcutaneously injected into the flank of C57B6/J male and female mice (5 mice per group, age 6-8 weeks, Jackson laboratory) and allowed to grow for 3 days (average tumor size=50 mm^3) before being treated with the selective IDO1 inhibitor epacadostat at 200 mg/kg daily or with AT-0174 at 170 mg/kg daily (a dual inhibitor of IDO1 and TDO enzymes). Both compounds were administered via oral gavage (P.O.) and diluted with 95% water+5% methylcellulose (0.5%) and stored at −20° C. Compound was prepared every 5 days. Methyl cellulose (95+5%) was used as control (“Veh”). Tumor growth was evaluated every 2 days by measuring tumor volume with calipers according to the following formula: tumor volume=width^2×length×0.5. At the end of the study, mice were sacrificed and the blood, tumor, and lymph nodes were collected and processed for KYN and tryptophan (TRP) measurement and immune cell assessment respectively.
In this example, LLC-CR from the Lewis lung mouse cell line (LLC; see methods) was used to determine, in vivo, the effect of IDO1 or dual IDO1/TDO inhibition on tumor growth. Mice were inoculated with either LLC or LLC-CR and treated with epacadostat (200 mg/kg P.O. 1/day) or AT-0174 (170 mg/kg P.O. 1/day).

[2] = tested on: immune cells in LLC-CR tumors; assay: Flow cytometry immune cell analysis, LLC-CR tumors; format: in vivo, mouse; conditions: AT-0174 170 mg/kg, epacadostat 200 mg/kg P.O. daily
Description: as §1
Tumors or lymph nodes were collected from mice and homogenized using syringe plungers. Mesh filters (40 μM) were placed on 15 mL or 50 mL tubes and the tissue suspensions were filtered. Cell filtrates were spun down at 1000 g. Red blood cell lysis buffer (1% […]) was added into the cell pellets and resuspended. Cell pellets were washed using PBS and isolated. Tumors were isolated using EasySep™ Mouse TIL (CD45) Positive Selection Kit (Stemcell Technologies). To detect regulatory T cells (T-regs) or natural killer cells (NKs), EasySep™ Mouse CD25 Regulatory T Cell Positive Selection Kit and EasySep™ Mouse CD49b Positive Selection Kit were used, respectively. Isolated cells were stained according to manufacturer's instructions. Cells were also fixed with 2% paraformaldehyde and analysis was done using the CytoFLEX Flow Cytometer (Beckman). All flow antibodies were obtained from Biolegend.

[3] = tested on: kynurenine (KYN) and tryptophan (TRP) levels in mouse serum; assay: KYN and TRP measurements, LLC-CR-bearing mice; format: in vivo; conditions: AT-0174 170 mg/kg, epacadostat 200 mg/kg P.O. daily
Description: as §1
Blood samples were collected via cardiac puncture from mice at the time of sacrifice and the Biochrom 30 amino acid analyzer (using ion exchange chromatography) was used to analyze free amino acids in samples. Briefly, 200 μL of serum extract and equal volume of 30% v/v deproteinization agent (sulfosalicylic acid) were mixed and vortexed for 10 s. Samples were then incubated at 55° C. for 20 min, spin down at 2500 g for 20 min at 4° C. Supernatant were collected, filtered through a 0.22 μm filter, and injected into the Biochrom 30. Values were reported compared to normal ranges in controls. Samples used in ion exchange chromatography are separated in an analytical fashion with an ion exchange column and buffers of increasing pH and ionic strength. After post-column derivatization with Ninhydrin, and colorimetric intensity recordings at 570 nm and 440 nm, the amino acids separated by chromatography were detected. Amino acid concentration was calculated by comparing the peak area of a particular amino acid to the peak area of an internal standard-AEC of known concentration, and then multiplying by its specific response factor from calibration.

[4] = tested on: cisplatin-resistant LLC tumors; assay: Survival of mice with cisplatin-resistant LLC tumors; format: in vivo, mouse; conditions: for First Death / Maximal Survival / Median Survival Time: LLC-CR, C57B6/J mice, epacadostat 200 mg/kg, AT-0174 170 mg/kg P.O., anti-PD-1 10 mg/kg i.p. every 3 days
Description: To investigate the synergy of immune response on tumors between the dual IDO1/TDO inhibitor AT-0174 and an immune checkpoint inhibitor, the compound was tested in mice with cisplatin-resistant lung cancer tumors with and without with anti-PD1 antibody co-treatment.
LLC-CR (1×10^6) cells were subcutaneously injected into the flank of C57B6/J mice (6 mice per group, age 8 weeks) and allowed to grow for 3 days (average tumor size=50 mm^3) before being treated with IDO1 inhibitor epacadostat at 200 mg/kg daily (a supra-maximal dose) or with AT-0174 at 170 mg/kg. Both compounds were administered via oral gavage (P.O.) in 95% water+5% methylcellulose (0.5%). Anti-mouse PD-1 MAb clone RMPi-14 was used as checkpoint inhibitor and administered via intraperitoneal injection (i.p.) at a dose of 10 mg/kg every 3 days.

SMILES | tumor volume, Mean ([1]; day 1, AT-0174 170 mg/kg) | tumor volume, Mean ([1]; day 2, AT-0174 170 mg/kg) | tumor volume, Mean ([1]; day 3, AT-0174 170 mg/kg) | tumor volume, Mean ([1]; day 4, AT-0174 170 mg/kg) | tumor volume, Mean ([1]; day 5, AT-0174 170 mg/kg) | tumor volume, Mean ([1]; day 6, AT-0174 170 mg/kg) | tumor volume, Mean ([1]; day 7, AT-0174 170 mg/kg) | tumor volume, Mean ([1]; day 8, AT-0174 170 mg/kg) | tumor volume, Mean ([1]; day 9, AT-0174 170 mg/kg) | tumor volume, Mean ([1]; day 10, AT-0174 170 mg/kg) | tumor volume, Mean ([1]; day 11, AT-0174 170 mg/kg) | tumor volume, Mean ([1]; day 12, AT-0174 170 mg/kg) | tumor volume, Mean ([1]; day 13, AT-0174 170 mg/kg) | tumor volume, Mean ([1]; day 14, AT-0174 170 mg/kg) | tumor volume, Mean ([1]; day 15, AT-0174 170 mg/kg) | CD3^+ CD8^+ T-Effector [2] | CD3^+ CD49^+ NKG2D^+ NK Cells [2] | CD4^+ CD25^+ FoxP3^+ T-regs [2] | KYN/TRP Ratio [3] | Kynurenine [3] | also measured
Nc1noc2nc(Cl)c(F)cc12 [Compound 66, 6-Chloro-5-fluoroisoxazolo[5,4-b]pyridin-3-amine] | 58.0 mm^3 | 79.0 mm^3 | 110.0 mm^3 | 125.0 mm^3 | 115.2 mm^3 | 124.0 mm^3 | 135.0 mm^3 | 140.6 mm^3 | 171.0 mm^3 | 230.0 mm^3 | 340.0 mm^3 | 430.0 mm^3 | 571.8 mm^3 | 645.0 mm^3 | 675.0 mm^3 | 8.13 ± 0.94 | 7.44 ± 0.62 | 5.75 ± 1.53 | 1.18 ± 0.31 | 50 ± 9.7 | Tyrptophan [3]: 85.8 ± 8.3; effect on survival ([4]; LLC-CR mice, given alone): increased survival to a greater extent than the selective agent; First Death [4]: 36 days; Maximal Survival [4]: 43 days; Median Survival Time [4]: 36 days
NS(=O)(=O)NCCNc1nonc1C(=NO)Nc1ccc(F)c(Br)c1 [Epacadostat, epacadostat, reference compound] | 47.0 mm^3 | 108.0 mm^3 | 110.0 mm^3 | 124.0 mm^3 | 137.0 mm^3 | 151.0 mm^3 | 208.0 mm^3 | 290.0 mm^3 | 325.0 mm^3 | 409.0 mm^3 | 563.0 mm^3 | 625.0 mm^3 | 725.0 mm^3 | 785.0 mm^3 | 910.0 mm^3 | 4.06 ± 0.63 | 2.38 ± 0.42 | 12.60 ± 0.94 | 2.01 ± 0.32 | 81.8 ± 11.9 | Tyrptophan [3]: 43 ± 5.8; First Death [4]: 24 days; Maximal Survival [4]: 35 days; Median Survival Time [4]: 25 days
